Like-named read-outs stand apart in the source and are kept apart here.

Data set [1] concerns the target T1, Oxidase MAO-A Peripheral (Rattus norvegicus, UniProt P21396).
T1 construct: purchased NovaScreen
T1 sequence (P21396 1-526): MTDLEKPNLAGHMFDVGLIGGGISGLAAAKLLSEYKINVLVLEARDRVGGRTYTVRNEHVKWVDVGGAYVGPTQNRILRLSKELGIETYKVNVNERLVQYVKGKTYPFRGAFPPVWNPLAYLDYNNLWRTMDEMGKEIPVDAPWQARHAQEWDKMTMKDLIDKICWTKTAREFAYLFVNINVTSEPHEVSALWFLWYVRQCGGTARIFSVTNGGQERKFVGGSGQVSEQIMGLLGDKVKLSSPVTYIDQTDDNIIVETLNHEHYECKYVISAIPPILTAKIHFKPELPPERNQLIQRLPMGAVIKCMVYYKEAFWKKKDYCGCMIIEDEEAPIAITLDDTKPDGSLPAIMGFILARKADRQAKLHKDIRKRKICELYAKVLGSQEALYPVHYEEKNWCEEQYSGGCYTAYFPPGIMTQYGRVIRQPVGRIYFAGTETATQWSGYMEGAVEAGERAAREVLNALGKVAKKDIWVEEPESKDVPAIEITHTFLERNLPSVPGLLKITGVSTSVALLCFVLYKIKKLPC
As to the kind of experiment: NovaScreen ligand-binding screen, MAO-A. On the procedure: Methods: Investigational drug candidates CX157 were analyzed in NovaScreen's bank of ligand-binding reactions to test for specificity. CX157 was screened at concentrations of both 10.0 nM and 100 nM as potential competitors in binding reactions involving nine classes containing 69 binding sites. The following binding reactions are tested: Adenosine Non-selective, Adrenergic Alpha 1 Non-selective, Adrenergic Alpha 2 Non-selective, Adrenergic Beta Non-selective, Dopamine Transporter, Dopamine Non-selective, GABA A Agonist Site, GABA A BDZ alpha 1 site, GABA B, Glutamate AMPA Site (Ionotropic), Glutamate Kainate Site (Ionotropic), Glutamate NMDA Agonist Site (Ionotropic), Glutamate NMDA Glycine (Stry-insens Site) (Ionotrophic), Glycine Strychnine-sensitive, Histamine H1, Histamine H2, Histamine H3, Melatonin Non-selective, Muscarinic M1 (hr), Muscarinic M2 (hr), Muscarinic Non-selective Central, Muscarinic Non-selective Peripheral, Nicotinic (α-BnTx insensitive) Neuronal, Norepinephrine Transporter, Opioid Non-selective, Orphanin (hr), Serotonin Transporter, Serotonin Non-selective, Sigma Non-selective, Estrogen, Testosterone (cytosolic), Calcium Channel Type L (Dihydropyridine Site), Calcium Channel Type N, Potassium Channel ATP-Sensitive, Potassium Channel Ca2+ Act. VI, Potassium Channel I[Kr]

The nature of data set [2]: Phase I modified release tablets BID pharmacokinetics. Format: in vivo, human. The note with it: for Cmax / AUC / concentration at 7 day: human, plasma, oral, 125 mg. On the procedure: Methods: A total of 20 Subjects (16 on CX157 and 4 on placebo) were dosed with CX157 Modified Release Tablets, 125 mg BID (total daily dose of 250 mg) or placebo in Period 1 for 7 days. […] Subjects who were randomized to CX157 125 mg BID in Period 1 received CX157 175 mg BID in Period 2, after a washout of 7 days. Subjects randomized to placebo in Period 1 received placebo in Period 2, after a washout of 7 days. Blood samples for PK analysis were collected during both periods of the study.
Each oval, biconvex CX157 Film Coated Tablet, 125 mg has a white opaque film coating (Advantia™ Prime) and is stored long-term at controlled room temperature conditions [25° C. (77° F.); excursions 15-30° C. (59-86° F.)].
Each CX157 Modified Release Tablet, 175 mg is stored long-term at controlled room temperature conditions [25° C. (77° F.), excursions 15-30° C. (59-86° F.)]; the tablets are a modified caplet shape, pale pink in color, and plain on both sides.

Data set [3] concerns the target T2, MAO-A (Homo sapiens, UniProt P21397).
T2 sequence (P21397 1-527): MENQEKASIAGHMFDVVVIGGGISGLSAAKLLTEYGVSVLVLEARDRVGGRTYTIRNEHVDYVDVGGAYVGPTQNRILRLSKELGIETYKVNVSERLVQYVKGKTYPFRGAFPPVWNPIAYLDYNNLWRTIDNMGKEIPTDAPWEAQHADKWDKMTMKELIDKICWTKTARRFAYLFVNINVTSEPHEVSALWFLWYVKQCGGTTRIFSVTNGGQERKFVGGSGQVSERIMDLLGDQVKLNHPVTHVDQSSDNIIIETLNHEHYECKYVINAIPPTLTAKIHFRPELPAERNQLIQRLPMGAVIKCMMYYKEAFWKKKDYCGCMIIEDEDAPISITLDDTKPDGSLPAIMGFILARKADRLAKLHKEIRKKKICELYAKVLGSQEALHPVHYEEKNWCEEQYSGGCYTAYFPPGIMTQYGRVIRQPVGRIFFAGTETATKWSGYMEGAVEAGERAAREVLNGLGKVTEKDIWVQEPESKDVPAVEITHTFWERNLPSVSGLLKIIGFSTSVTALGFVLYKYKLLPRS
The note with it: cited from earlier work.

Data set [4] concerns the target T2, MAO-A. In words: Phase I 14-day twice-daily pharmacodynamics. The note with it: repeated administration 10, 20, 40 mg twice daily. Format: in vivo. Also on record: administered for 14 days compared to placebo in healthy male and female volunteers; from tissue; host or cells: in vivo, healthy volunteers.
Experimental: Methods: The study was a Phase I, single-center, randomized, parallel-group, multiple-dose, placebo-controlled, pharmacodynamic, pharmacokinetic and safety study in healthy volunteers. To obtain 24 enrolled subjects, screening procedures and inclusion/exclusion criteria were evaluated for 54 subjects during a variable screening period of up to 28 days.

In the case of `O=S1(=O)c2ccc(F)cc2Oc2cc(OCC(F)(F)F)ccc21` [CX157, 3-fluoro-7(2,2,2-trifluorethoxy)phenoxathiine-10,10-dioxide], the “reduction of [14C]-5-HT binding” value is given as 63.4% in data set [1] (10.0 nM CX157) and 100.6% in data set [1] (100 nM CX157). Also, in data set [1] (read-out: Kd, competition for [14C]-serotonin (5-HT) binding), the Kd was determined as 8.7 nM. Also, in data set [2] (125 mg BID, Day 7), the “fluctuation in CX157 concentrations during each 12-h dosing interval at steady state” value is recorded as 4.6 fold. Moreover, the “accumulation, Day 7 versus Day 1 exposures” value in data set [2] (BID dosing with 125 mg MR tablets) worked out at 2.6 fold. In addition, the Cmax in data set [2] (125 mg BID, Day 1, read-out: mean Cmax) came to 134 ± 103 ng/mL; in data set [2] (MR tablets 125 mg BID, Day 7, mean, read-out: Cmax), 231 ± 114 ng/mL. The AUC in data set [2] (12-hour AUC, 125 mg BID, Day 1) was 702 ± 500 ng·h/mL; in data set [2] (MR tablets 125 mg BID, Day 7, mean, read-out: AUCSS) it was 1280 ± 651 ng·h/mL. The concentration at 7 day in data set [2] (MR tablets 125 mg BID, Day 7, mean, read-out: CSS) amounted to 107 ± 54 ng/mL; in data set [2] (MR tablets 125 mg BID, Day 7, mean, read-out: Cmin) it was 54.9 ± 32 ng/mL. In addition, the “potency for MAO-A inhibition relative to moclobemide” value in data set [3] is “more than 100 times”. In data set [4], the “pharmacodynamic activity: MAO-A activity” value was “inhibits MAO-A activity”.

As a reminder, the Kd is the constant that tells how readily two partners part at equilibrium. The term Cmax denotes the highest concentration seen after dosing.

These data come from patent US12263155B2, “Combinations of monoamine oxidase inhibitors and serotonin receptor agonists and their therapeutic use” (Remedi, Inc., priority 2022, dated 2025).
